Among the data in patent publication US11584747B2, “Substituted pyridopyrimidinonyl compounds useful as T cell activators” (BRISTOL-MYERS SQUIBB COMPANY, priority 2019, dated 2023) are IC50 and EC50 values, retold here.

Assay [1] deals with T1, human DGKα (Homo sapiens (Human), UniProt P23743). The assay can be described thus: DGKα LIPGLO assay (extruded liposome substrate, ADP-Glo luminescence). In kind it is biochemical. The conditions noted are these: liposome assay; read-out: DGK alpha LIPGLO IC50.
T1 sequence (P23743 whole entry, looked up): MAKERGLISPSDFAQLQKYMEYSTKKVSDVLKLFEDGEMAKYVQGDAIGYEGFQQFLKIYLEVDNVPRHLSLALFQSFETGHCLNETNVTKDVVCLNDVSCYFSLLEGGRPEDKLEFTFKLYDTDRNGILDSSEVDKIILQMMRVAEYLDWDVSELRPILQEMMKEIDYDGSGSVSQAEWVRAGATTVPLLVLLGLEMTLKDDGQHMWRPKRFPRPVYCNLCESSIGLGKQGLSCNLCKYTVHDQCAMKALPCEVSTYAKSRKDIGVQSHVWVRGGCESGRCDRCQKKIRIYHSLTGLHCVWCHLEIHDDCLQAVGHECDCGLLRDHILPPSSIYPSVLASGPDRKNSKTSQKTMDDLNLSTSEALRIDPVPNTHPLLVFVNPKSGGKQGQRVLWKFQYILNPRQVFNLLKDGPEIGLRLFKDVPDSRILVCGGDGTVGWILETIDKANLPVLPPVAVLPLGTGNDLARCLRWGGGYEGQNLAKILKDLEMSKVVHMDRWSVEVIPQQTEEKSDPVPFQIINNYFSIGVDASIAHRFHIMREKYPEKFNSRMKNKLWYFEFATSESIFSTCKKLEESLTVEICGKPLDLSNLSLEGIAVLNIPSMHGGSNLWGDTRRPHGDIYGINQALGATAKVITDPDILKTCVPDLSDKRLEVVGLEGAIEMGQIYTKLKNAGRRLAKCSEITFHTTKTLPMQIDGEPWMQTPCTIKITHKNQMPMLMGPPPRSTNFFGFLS
Another assay concerns the target human DGKζ (Homo sapiens (Human), UniProt Q13574). Description: DGKζ LIPGLO assay (extruded liposome substrate, ADP-Glo luminescence). It counts as biochemical.
The test system of assay [2] is human venous whole blood (IFN-γ). Description: Human whole blood IFN-γ assay. In kind it is cell-based. As to the method: Human venous whole blood (22.5 μL per well), obtained from healthy donors, was pre-treated with compounds for one hour at 37° C. in a humidified 95% air/5% CO2 incubator. The blood was stimulated with 2.5 μL anti-human CD3 and anti-CD28 mAb at a final concentration of 1 μg/mL each for 24 hours at 37° C. IFN-γ in the supernatants was measured using AlphLISA kit (Cat #AL217).

The target of assay [3] is T1, human DGKα. Description: DGKα ADPGLO assay (detergent/lipid micelle substrate). It counts as biochemical. As to the method: DGK Alpha ADPGLO (Truncated) IC50 (uM)
The detergent/lipid micelle was prepared by combining 15 g phosphatidylserine (Avanti 840035P) and 1 g diacylglycerol (8008110) and dissolving into 150 mL chloroform in a 2 L round bottom flask. Chloroform was removed under high vacuum by rotary evaporation. […] The lipid/detergent solution was split into 5 mL aliquots and stored at −80° C.
A general note: In ADP-Glo the light output rises with the ADP produced.

Where [4] appears, read: liposome assay, read-out: DGK zeta LIPGLO IC50.
[5] abbreviates: human whole blood, anti-CD3 plus anti-CD28 stimulation, 24 hours, read-out: IFN-γ Whole Blood EC50.
Setting [6] is: ADPGLO assay, read-out: DGK alpha ADPGLO IC50.
The mark [7] stands for this setting: liposome (LIPGLO) assay, read-out: DGK zeta (liposome assay) IC50.
Where [8] appears, read: whole blood, normalized to 3 μM reference compound as 100% activation, read-out: IFN-γ Whole Blood Normalized EC50.
[9] abbreviates: truncated DGK alpha, read-out: DGK alpha ADPGLO (Truncated) IC50.
[10] abbreviates: Homo sapiens, whole blood, normalized to 3 μM reference compound as 100% activation, read-out: IFN-γ Whole Blood Normalized EC50.

Read-outs that look alike come from different tables or passages of the source.

Chain of human DGKζ (Q13574 other isoform, or with tags, fused parts or gaps): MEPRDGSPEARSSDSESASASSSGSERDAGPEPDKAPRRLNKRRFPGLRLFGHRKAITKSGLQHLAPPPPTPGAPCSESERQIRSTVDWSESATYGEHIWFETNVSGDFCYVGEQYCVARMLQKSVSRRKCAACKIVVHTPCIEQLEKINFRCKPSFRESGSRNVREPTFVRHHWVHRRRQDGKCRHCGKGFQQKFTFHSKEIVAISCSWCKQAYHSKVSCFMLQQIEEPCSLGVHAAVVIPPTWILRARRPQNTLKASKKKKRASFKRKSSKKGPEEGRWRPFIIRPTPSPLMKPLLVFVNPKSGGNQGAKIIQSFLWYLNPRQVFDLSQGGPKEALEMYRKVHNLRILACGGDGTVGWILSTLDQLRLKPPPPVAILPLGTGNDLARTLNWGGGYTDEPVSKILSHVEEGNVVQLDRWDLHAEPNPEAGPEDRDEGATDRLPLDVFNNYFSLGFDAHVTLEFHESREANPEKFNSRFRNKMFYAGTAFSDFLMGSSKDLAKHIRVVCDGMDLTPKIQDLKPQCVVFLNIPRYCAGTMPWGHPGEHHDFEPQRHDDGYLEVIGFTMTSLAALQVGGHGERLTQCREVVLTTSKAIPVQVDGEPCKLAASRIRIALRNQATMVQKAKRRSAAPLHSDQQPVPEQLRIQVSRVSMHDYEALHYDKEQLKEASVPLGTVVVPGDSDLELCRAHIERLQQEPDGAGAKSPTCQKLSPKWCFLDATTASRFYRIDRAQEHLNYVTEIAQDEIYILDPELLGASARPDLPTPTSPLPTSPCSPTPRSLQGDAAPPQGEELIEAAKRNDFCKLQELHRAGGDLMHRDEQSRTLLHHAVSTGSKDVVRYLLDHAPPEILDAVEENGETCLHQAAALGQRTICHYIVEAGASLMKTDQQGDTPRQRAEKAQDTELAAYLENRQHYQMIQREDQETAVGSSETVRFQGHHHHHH

For `CC[C@H]1CN(C(C)c2ccc(OC(F)(F)F)cc2)[C@H](CC)CN1c1nc(=O)n(C)c2ccc(C#N)nc12` (single isomer, unassigned) [Example 10], the IC50 is 0.37 µM at human DGKα [1] and 0.97 µM at human DGKζ (setting [4]).

Consider `CC[C@H]1CN(C(C)c2ccc(OC)cc2)[C@H](CC)CN1c1nc(=O)n(C)c2ccc(C#N)nc12` (single isomer, unassigned) [Example 16], for which the IC50 on human DGKα [1] was 0.045 µM; on human DGKζ (setting [4]), 0.037 µM.

As for `CC(c1ccc(F)cc1)N1C[C@H](C)N(c2nc(=O)n(C)c3ccc(C#N)nc23)C[C@H]1C` (single isomer, unassigned) [Example 128], the results for the IC50 on human DGKα [1] and on human DGKζ (setting [4]) were 0.026 µM and 0.11 µM, respectively.

With `CC[C@H]1CN(C(C)c2ccc(OC(F)(F)F)cc2)[C@H](CC)CN1c1nc(=O)n(C)c2ccc(C#N)nc12` (single isomer, unassigned) [Example 9], the IC50 on human DGKα [1] was 0.007 µM; at human DGKζ (setting [4]) it was 0.048 µM.

As to `CC[C@H]1CN(C(c2ccc(F)cc2)c2cccc(C(F)(F)F)n2)[C@H](C)CN1c1nc(=O)n(C)c2ccc(C#N)nc12` (stereo partly drawn) [Example 120, 4-((2S,5R)-2-ethyl-4-((4-fluorophenyl)(6-(trifluoromethyl)pyridin-2-yl)methyl)-5-methylpiperazin-1-yl)-1-methyl-2-oxo-1,2-dihydropyrido[3,2-d]pyrimidine-6-carbonitrile], the results for the IC50 on human DGKα [1] and at human DGKζ (setting [4]) were 1.71 µM and 0.74 µM, respectively.

Regarding `CCC(c1ccc2c(c1)OC(F)(F)O2)N1C[C@H](C)N(c2nc(=O)n(C)c3ccc(C#N)nc23)C[C@H]1CC` (single isomer, unassigned) [Example 80], the figures for the IC50 on human DGKα [1] and at human DGKζ (setting [4]) were 2.16 µM and 1.18 µM, respectively.

Turning to `CC(c1cc(F)c(F)c(F)c1)N1C[C@H](C)N(c2nc(=O)n(C)c3ccc(C#N)nc23)C[C@H]1C` (single isomer, unassigned) [Example 138], the IC50 at human DGKα [1] is 2.41 µM.

Regarding `CCC(c1ccc(OC(F)(F)F)cc1F)N1C[C@H](CC)N(c2nc(=O)n(C)c3ccc(C#N)nc23)C[C@H]1CC` (stereo partly drawn) [Example 11], the concentration for half-maximal inhibition (IC50) at human DGKα [1] came to 0.005 µM; on human DGKζ (setting [4]), 0.06 µM.

As to `CCC(c1ccc(C(F)(F)F)cc1)N1C[C@H](CC)N(c2nc(=O)n(C)c3ccc(OC)nc23)C[C@H]1CC` (stereo partly drawn) [Example 436, 4-((2S,5R)-2,5-diethyl-4-(1-(4-(trifluoromethyl)phenyl)propyl)piperazin-1-yl)-6-methoxy-1-methylpyrido[3,2-d]pyrimidin-2(1H)-one], the EC50 in assay [2] (setting [5]) worked out at 20 µM. For the same compound, the concentration for half-maximal inhibition (IC50) at human DGKα [3] (setting [6]) was found to be 12.2 µM; at human DGKζ (setting [7]), 250 µM.

For `CC(c1ccc(CN2C[C@@H]3C[C@H]2CO3)cc1)N1C[C@H](C)N(c2nc(=O)n(C)c3ccc(C#N)nc23)C[C@H]1C` (stereo partly drawn) [Example 388, 4-((2S,5R)-4-(1-(4-(((1S,4S)-2-oxa-5-azabicyclo[2.2.1]heptan-5-yl)methyl)phenyl)ethyl)-2,5-dimethylpiperazin-1-yl)-1-methyl-2-oxo-1,2-dihydropyrido[3,2-d]pyrimidine-6-carbonitrile], the EC50 in assay [2] (setting [5]) stood at 20 µM. For the same compound, the IC50 was 1.75 µM at human DGKα [3] (setting [6]) and 45.7 µM on human DGKζ (setting [7]).

Take `CC[C@H]1CN(C(C)c2ccc3oc(=O)n(C)c3c2)[C@H](CC)CN1c1nc(=O)n(C)c2ccc(C#N)nc12` (stereo partly drawn) [Example 203, 4-((2S,5R)-2,5-diethyl-4-(1-(3-methyl-2-oxo-2,3-dihydrobenzo[d]oxazol-5-yl)ethyl)piperazin-1-yl)-1-methyl-2-oxo-1,2-dihydropyrido[3,2-d]pyrimidine-6-carbonitrile]: the EC50 in assay [2] (setting [8]) came out at 2.21 µM. In addition, the IC50 on human DGKα [3] (setting [9]) came out at 0.78 µM; at human DGKζ (setting [4]), 2.71 µM.

For the compound `CC[C@@H]1CN(c2nc(=O)n(C)c3ccc(C#N)nc23)[C@@H](C)CN1C(c1ccc(F)cc1)c1csc(C(F)(F)F)n1` (stereo partly drawn) [Example 296, 4-((2S,5R)-5-ethyl-4-((4-fluorophenyl)(2-(trifluoromethyl)thiazol-4-yl)methyl)-2-methylpiperazin-1-yl)-1-methyl-2-oxo-1,2-dihydropyrido[3,2-d]pyrimidine-6-carbonitrile], the EC50 in assay [2] (setting [10]) is 0.036 µM. The IC50 at human DGKα [3] (setting [9]) is 0.46 µM; on human DGKζ (setting [4]) it was 0.14 µM.

Take `CCC(c1ccc(C)cc1)N1C[C@H](CC)N(c2nc(=O)n(C)c3ccc(C#N)nc23)C[C@H]1CC` (stereo partly drawn) [Example 237, 4-((2S,5R)-2,5-diethyl-4-(1-(p-tolyl)propyl)piperazin-1-yl)-1-methyl-2-oxo-1,2-dihydropyrido[3,2-d]pyrimidine-6-carbonitrile]: in assay [2] (setting [8]), the EC50 worked out at 1.43 µM. In addition, the IC50 worked out at 0.053 µM at human DGKα [3] (setting [9]) and 3.96 µM on human DGKζ (setting [4]).

Consider `CCC(c1ccc(Cl)cc1F)N1C[C@H](CC)N(c2nc(=O)n(C)c3ccc(C#N)nc23)C[C@H]1CC` (stereo partly drawn) [Example 238, 4-((2S,5R)-4-(1-(4-chloro-2-fluorophenyl)propyl)-2,5-diethylpiperazin-1-yl)-1-methyl-2-oxo-1,2-dihydropyrido[3,2-d]pyrimidine-6-carbonitrile], for which the EC50 in assay [2] (setting [8]) came to 0.023 µM. In addition, the IC50 came to 0.015 µM at human DGKα [3] (setting [9]) and 0.11 µM at human DGKζ (setting [4]).

In the case of `CC[C@H]1CN(C(C)c2ccc(CN3CCOC(C)(C)C3)cc2)[C@H](CC)CN1c1nc(=O)n(C)c2ccc(C#N)nc12` (stereo partly drawn) [Example 276, 4-((2S,5R)-4-(1-(4-((2,2-dimethylmorpholino)methyl)phenyl)ethyl)-2,5-diethylpiperazin-1-yl)-1-methyl-2-oxo-1,2-dihydropyrido[3,2-d]pyrimidine-6-carbonitrile], the EC50 in assay [2] (setting [8]) came to 3.56 µM. Further, the results for the half-inhibitory concentration (IC50) at human DGKα [3] (setting [9]) and at human DGKζ (setting [4]) were 0.12 µM and 1.38 µM, respectively.

Turning to `CC[C@@H]1CN(c2nc(=O)n(C)c3ccc(C#N)nc23)[C@@H](CC)CN1Cc1ccc(C(F)(F)F)cc1F` [Example 204, 4-((2S,5R)-2,5-diethyl-4-(2-fluoro-4-(trifluoromethyl)benzyl)piperazin-1-yl)-1-methyl-2-oxo-1,2-dihydropyrido[3,2-d]pyrimidine-6-carbonitrile], the EC50 in assay [2] (setting [10]) was determined as 0.41 µM. Further, the results for the IC50 on human DGKα [3] (setting [9]) and at human DGKζ (setting [4]) were 0.12 µM and 1.41 µM, respectively.

For the compound `CC[C@H]1CN(C(C)c2ccc(C)nc2)[C@H](CC)CN1c1nc(=O)n(C)c2ccc(C#N)nc12` (stereo partly drawn) [Example 228, 4-((2S,5R)-2,5-diethyl-4-(1-(6-methylpyridin-3-yl)ethyl)piperazin-1-yl)-1-methyl-2-oxo-1,2-dihydropyrido[3,2-d]pyrimidine-6-carbonitrile], the EC50 in assay [2] (setting [8]) came to 0.6 µM. The values for the IC50 at human DGKα [3] (setting [9]) and on human DGKζ (setting [4]) were 0.19 µM and 0.3 µM, respectively.

Take `CC(c1ccc(CN2CCOC(C)(C)C2)cc1)N1C[C@H](C)N(c2nc(=O)n(C)c3ccc(C#N)nc23)C[C@H]1C` (single isomer, unassigned) [Example 386]: the 50% effective concentration (EC50) in assay [2] (setting [5]) came to 2.49 µM. The IC50 at human DGKα [3] (setting [6]) stood at 2.7 µM; at human DGKζ (setting [7]), 5.07 µM.

For the compound `CCC(c1ccc(OC)cc1)N1C[C@H](CC)N(c2nc(=O)n(C)c3ccc(C#N)nc23)C[C@H]1CC` (stereo partly drawn) [Example 212, 4-((2S,5R)-2,5-diethyl-4-(1-(4-methoxyphenyl)propyl)piperazin-1-yl)-1-methyl-2-oxo-1,2-dihydropyrido[3,2-d]pyrimidine-6-carbonitrile], in assay [2] (setting [8]), the EC50 is 0.022 µM. Also, the IC50 at human DGKα [3] (setting [9]) is 0.018 µM; at human DGKζ (setting [4]), 0.07 µM.

Consider `CC[C@H]1CN(C(C)c2ccc(CO)cc2)[C@H](CC)CN1c1nc(=O)n(C)c2ccc(C#N)nc12` (stereo partly drawn) [Example 270, 4-((2S,5R)-2,5-Diethyl-4-(1-(4-(hydroxymethyl)phenyl)ethyl)piperazin-1-yl)-1-methyl-2-oxo-1,2-dihydropyrido[3,2-d]pyrimidine-6-carbonitrile], for which the EC50 in assay [2] (setting [8]) was 1.39 µM. In addition, the IC50 on human DGKα [3] (setting [9]) stood at 0.008 µM; at human DGKζ (setting [4]), 2.32 µM.

For `CC[C@H]1CN(C(C)c2cnc(C(F)(F)F)nc2)[C@H](CC)CN1c1nc(=O)n(C)c2ccc(C#N)nc12` (stereo partly drawn) [Example 226, 4-((2S,5R)-2,5-diethyl-4-(1-(2-(trifluoromethyl)pyrimidin-5-yl)ethyl)piperazin-1-yl)-1-methyl-2-oxo-1,2-dihydropyrido[3,2-d]pyrimidine-6-carbonitrile], the EC50 in assay [2] (setting [8]) was 5.6 µM. In addition, the IC50 at human DGKα [3] (setting [9]) was 1.21 µM; on human DGKζ (setting [4]), 2.65 µM.

As to `CC[C@H]1CN(C(c2ccc(F)cc2)c2csc(C(F)(F)F)n2)[C@H](CC)CN1c1nc(=O)n(C)c2ccc(C#N)nc12` (stereo partly drawn) [Example 210, 4-((2S,5R)-2,5-diethyl-4((4-fluorophenyl)(2-(trifluoromethyl)thiazol-4-yl)methyl)piperazin-1-yl)-1-methyl-2-oxo-1,2-dihydropyrido[3,2-d]pyrimidine-6-carbonitrile], the EC50 in assay [2] (setting [10]) amounted to 0.031 µM. For the same compound, the values for the IC50 on human DGKα [3] (setting [9]) and on human DGKζ (setting [4]) were 0.046 µM and 0.97 µM, respectively.

On to `CCC(c1ccc(C(F)(F)F)cc1)N1C[C@H](CC)N(c2nc(=O)n(C)c3ccc(Cl)nc23)C[C@H]1CC` (single isomer, unassigned) [Example 421], for which the EC50 in assay [2] (Homo sapiens, 24 h, human whole blood, anti-CD3 plus anti-CD28 stimulation, 24 hours, read-out: IFN-γ Whole Blood EC50) stood at 0.19 µM. For the same compound, the half-inhibitory concentration (IC50) was found to be 0.064 µM on human DGKα [3] (setting [6]) and 0.32 µM on human DGKζ (setting [7]).

Usually IC50 stands for the concentration at which inhibition is half-maximal. A word on the EC50: it is the concentration needed to bring the measured effect to its halfway point.
